From PubChem BioAssay (NCI)
Several values for one entry are separate records, joined by “and”; a condition that tells them apart may be missing. Equal entries are not always repeated.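 Test compounds were applied to cells in 96-well plates for 48 hours at 5 doses. At the GI50, growth is halved. TGI: concentration producing complete growth inhibition.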

Experiments:
Assay in all cases: NCI-60 cell line screen, 48 h
CAKI-1 renal = test system: CAKI-1 renal
SK-MEL-28 melanoma = test system: SK-MEL-28 melanoma
KM20L2 colon = test system: KM20L2 colon
HOP-18 NSCLC = test system: HOP-18 NSCLC
SN12C renal = test system: SN12C renal
UO-31 renal = test system: UO-31 renal
IGROV1 ovarian = test system: IGROV1 ovarian
OVCAR-4 ovarian = test system: OVCAR-4 ovarian
ACHN renal = test system: ACHN renal
SK-MEL-5 melanoma = test system: SK-MEL-5 melanoma
HCT-116 colon = test system: HCT-116 colon
SW-620 colon = test system: SW-620 colon
HL-60(TB) leukemia = test system: HL-60(TB) leukemia
UACC-257 melanoma = test system: UACC-257 melanoma
OVCAR-3 ovarian = test system: OVCAR-3 ovarian
MOLT-4 leukemia = test system: MOLT-4 leukemia
SR leukemia = test system: SR leukemia
UACC-62 melanoma = test system: UACC-62 melanoma
SK-MEL-2 melanoma = test system: SK-MEL-2 melanoma
OVCAR-5 ovarian = test system: OVCAR-5 ovarian
SNB-19 CNS = test system: SNB-19 CNS
SNB-78 CNS = test system: SNB-78 CNS
786-0 renal = test system: 786-0 renal
HT29 colon = test system: HT29 colon
SNB-75 CNS = test system: SNB-75 CNS
DLD-1 colon = test system: DLD-1 colon
A549 NSCLC = test system: A549 NSCLC
U251 CNS = test system: U251 CNS
SF-295 CNS = test system: SF-295 CNS
COLO 205 colon = test system: COLO 205 colon
MALME-3M melanoma = test system: MALME-3M melanoma
HOP-92 NSCLC = test system: HOP-92 NSCLC
KM12 colon = test system: KM12 colon
DMS 114 small cell lung = test system: DMS 114 small cell lung
M19-MEL melanoma = test system: M19-MEL melanoma
OVCAR-8 ovarian = test system: OVCAR-8 ovarian
LXFL 529 NSCLC = test system: LXFL 529 NSCLC
NCI-H460 lung = test system: NCI-H460 lung
SK-OV-3 ovarian = test system: SK-OV-3 ovarian
SF-539 CNS = test system: SF-539 CNS
RPMI-8226 leukemia = test system: RPMI-8226 leukemia
NCI-H23 lung = test system: NCI-H23 lung
NCI-H522 lung = test system: NCI-H522 lung
K-562 leukemia = test system: K-562 leukemia
CCRF-CEM leukemia = test system: CCRF-CEM leukemia
TK-10 renal = test system: TK-10 renal
HOP-62 NSCLC = test system: HOP-62 NSCLC
HCT-15 colon = test system: HCT-15 colon
NCI-H226 lung = test system: NCI-H226 lung
LOX IMVI melanoma = test system: LOX IMVI melanoma
SF-268 CNS = test system: SF-268 CNS
A498 renal = test system: A498 renal
RXF-631 renal = test system: RXF-631 renal
M14 melanoma = test system: M14 melanoma
BT-549 breast = test system: BT-549 breast
XF 498 CNS = test system: XF 498 CNS
HCC-2998 colon = test system: HCC-2998 colon
EKVX NSCLC = test system: EKVX NSCLC
RXF 393 renal = test system: RXF 393 renal
DU-145 prostate = test system: DU-145 prostate
MDA-MB-435 = test system: MDA-MB-435
HS 578T breast = test system: HS 578T breast
MDA-MB-231 breast = test system: MDA-MB-231 breast
DMS 273 small cell lung = test system: DMS 273 small cell lung
MDA-N = test system: MDA-N
T-47D breast = test system: T-47D breast
MCF7 breast = test system: MCF7 breast
PC-3 prostate = test system: PC-3 prostate

## COc1nc(NC2OCC(OC(C)=O)C(OC(C)=O)C2OC(C)=O)c(-c2csc(N)n2)c(=O)n1C (stereo not given)
CAKI-1 renal
  TGI: > 100 µM
SK-MEL-28 melanoma
  TGI: > 100 µM
KM20L2 colon
  TGI: > 100 µM
HOP-18 NSCLC
  TGI: > 100 µM
SN12C renal
  TGI: > 100 µM
UO-31 renal
  TGI: > 100 µM
IGROV1 ovarian
  TGI: > 100 µM
OVCAR-4 ovarian
  TGI: > 100 µM
ACHN renal
  TGI: > 100 µM
SK-MEL-5 melanoma
  TGI: > 100 µM
HCT-116 colon
  TGI: > 100 µM
SW-620 colon
  TGI: > 100 µM
HL-60(TB) leukemia
  TGI: > 100 µM
UACC-257 melanoma
  TGI: > 100 µM
OVCAR-3 ovarian
  TGI: > 100 µM
MOLT-4 leukemia
  TGI: > 100 µM
SR leukemia
  TGI: > 100 µM
UACC-62 melanoma
  TGI: > 100 µM
SK-MEL-2 melanoma
  TGI: > 100 µM
OVCAR-5 ovarian
  TGI: > 100 µM
SNB-19 CNS
  TGI: > 100 µM
SNB-78 CNS
  TGI: > 100 µM
786-0 renal
  TGI: > 100 µM
HT29 colon
  TGI: > 100 µM
SNB-75 CNS
  TGI: > 100 µM
DLD-1 colon
  TGI: > 100 µM
A549 NSCLC
  TGI: > 100 µM
U251 CNS
  TGI: > 100 µM
SF-295 CNS
  TGI: > 100 µM
COLO 205 colon
  TGI: > 100 µM
MALME-3M melanoma
  TGI: > 100 µM
HOP-92 NSCLC
  TGI: > 100 µM
KM12 colon
  TGI: > 100 µM
DMS 114 small cell lung
  TGI: > 100 µM
M19-MEL melanoma
  TGI: > 100 µM
OVCAR-8 ovarian
  TGI: > 100 µM
LXFL 529 NSCLC
  TGI: > 100 µM
NCI-H460 lung
  TGI: > 100 µM
SK-OV-3 ovarian
  TGI: > 100 µM
SF-539 CNS
  TGI: > 100 µM
RPMI-8226 leukemia
  TGI: > 100 µM
NCI-H23 lung
  TGI: > 100 µM
NCI-H522 lung
  TGI: > 100 µM
K-562 leukemia
  TGI: > 100 µM
CCRF-CEM leukemia
  TGI: > 100 µM
TK-10 renal
  TGI: > 100 µM
HOP-62 NSCLC
  TGI: > 100 µM
HCT-15 colon
  TGI: > 100 µM
NCI-H226 lung
  TGI: > 100 µM
LOX IMVI melanoma
  TGI: > 100 µM
SF-268 CNS
  TGI: > 100 µM
A498 renal
  TGI: > 100 µM
RXF-631 renal
  TGI: > 100 µM
M14 melanoma
  TGI: > 100 µM

## Cc1nc2c(o1)C(=O)c1ccccc1C2=Nc1ccccc1
BT-549 breast
  TGI: 3.13 µM
CAKI-1 renal
  TGI: 32 µM
SK-MEL-28 melanoma
  TGI: 3.91 µM
KM20L2 colon
  TGI: 42 µM
HOP-18 NSCLC
  GI50: 4.27 µM
  TGI: 3.39 µM and 10.1 µM
SN12C renal
  GI50: 2.99 µM
  TGI: 7.38 µM and 6.18 µM
XF 498 CNS
  TGI: 7.69 µM and 6.99 µM
UO-31 renal
  GI50: 3.66 µM
  TGI: 7.62 µM
IGROV1 ovarian
  TGI: 20.6 µM
OVCAR-4 ovarian
  GI50: 2.15 µM
  TGI: 6.5 µM and 5.86 µM
HCC-2998 colon
  TGI: 28.5 µM
ACHN renal
  GI50: 4.72 µM
  TGI: > 37.7 µM
SK-MEL-5 melanoma
  GI50: 1.73 µM
  TGI: 3.1 µM and 2.72 µM
HCT-116 colon
  GI50: 3.35 µM
  TGI: 5.77 µM
SW-620 colon
  GI50: 3.6 µM
  TGI: 7.86 µM
HL-60(TB) leukemia
  GI50: 3.04 µM
  TGI: 11.6 µM
UACC-257 melanoma
  TGI: 5.46 µM and 4.39 µM
OVCAR-3 ovarian
  GI50: 2.5 µM
  TGI: 4.52 µM and 8.04 µM
EKVX NSCLC
  GI50: 7.57 µM
  TGI: > 31.6 µM
MOLT-4 leukemia
  GI50: 4.55 µM and 4.44 µM
  TGI: 34.5 µM
SR leukemia
  TGI: > 93.5 µM
UACC-62 melanoma
  GI50: 2.07 µM
  TGI: 3.84 µM and 6.7 µM
SK-MEL-2 melanoma
  GI50: 3.62 µM
  TGI: 2.95 µM
OVCAR-5 ovarian
  TGI: 11.8 µM
SNB-19 CNS
  GI50: 11 µM
  TGI: 23 µM
RXF 393 renal
  TGI: 3.3 µM
SNB-78 CNS
  TGI: 9.13 µM
786-0 renal
  TGI: > 55.8 µM
HT29 colon
  TGI: 33.3 µM
SNB-75 CNS
  TGI: 3.94 µM and 3.81 µM
DU-145 prostate
  TGI: 3.33 µM
DLD-1 colon
  TGI: 29.2 µM
A549 NSCLC
  GI50: 13.2 µM
  TGI: 32.3 µM
U251 CNS
  TGI: 3.12 µM and 3.7 µM
SF-295 CNS
  GI50: 1.95 µM
  TGI: 3.88 µM
MDA-MB-435
  TGI: 1.09 µM
HS 578T breast
  TGI: 5.38 µM
COLO 205 colon
  TGI: 27.1 µM
MALME-3M melanoma
  GI50: 1.69 µM
  TGI: 3.06 µM and 2.66 µM
HOP-92 NSCLC
  TGI: 6.07 µM
KM12 colon
  TGI: 14.4 µM
DMS 114 small cell lung
  GI50: 1.78 µM
  TGI: 2.89 µM and 3.69 µM
M19-MEL melanoma
  GI50: 1.55 µM
  TGI: 3.24 µM and 2.97 µM
MDA-MB-231 breast
  TGI: 18.5 µM
DMS 273 small cell lung
  TGI: 6.1 µM
OVCAR-8 ovarian
  GI50: 4.16 µM
  TGI: 9.66 µM
LXFL 529 NSCLC
  TGI: 12.3 µM
NCI-H460 lung
  TGI: 12.3 µM
SK-OV-3 ovarian
  TGI: 31.2 µM
SF-539 CNS
  GI50: 1.96 µM
  TGI: 3.66 µM and 5.95 µM
RPMI-8226 leukemia
  GI50: 4.43 µM
  TGI: 11.1 µM
MDA-N
  TGI: 0.959 µM
NCI-H23 lung
  GI50: 2.31 µM
  TGI: 6.17 µM and 6.48 µM
NCI-H522 lung
  GI50: 3.21 µM
  TGI: 7.81 µM and 4.27 µM
K-562 leukemia
  GI50: 4.28 µM
  TGI: > 37.4 µM
T-47D breast
  TGI: 7.65 µM
CCRF-CEM leukemia
  GI50: 4.61 µM
  TGI: > 65.8 µM
TK-10 renal
  TGI: 41.9 µM
HOP-62 NSCLC
  TGI: 6.05 µM
HCT-15 colon
  GI50: 3.17 µM
  TGI: 7.63 µM
NCI-H226 lung
  TGI: 31.9 µM
MCF7 breast
  TGI: 5.47 µM
PC-3 prostate
  TGI: 6.51 µM
LOX IMVI melanoma
  TGI: 5.2 µM
SF-268 CNS
  GI50: 3.11 µM
  TGI: > 31.6 µM
M14 melanoma
  GI50: 1.64 µM
  TGI: 3 µM and 2.11 µM
